The structures appear in SMILES notation. Read-outs that look alike come from different tables or passages of the source.

The test system of one experiment is soybean looper larvae. The experiment is described as follows: Leaf dip test, soybean looper larvae. In kind it is in vivo, Chrysodeixis includens. Particulars: foliar, Bta/Btk 0.54 ppm, chlorantraniliprole 0.045 ppm, read-out: % Efficacy. The text has this:
(§1) The following examples were used to determine the synergy of Bacillus thuringiensis subsp. aizawai, Bacillus thuringiensis subsp. kurstaki and chlorantraniliprole when controlling diamondback moth, beet armyworm, sugarcane borer, soybean looper, corn earworm, cabbage looper, and southwestern corn borer. Sympatico™ emulsifiable suspension (available from Valent BioSciences Corporation) was used as the source of Bacillus thuringiensis subsp. aizawai and Bacillus thuringiensis kurstaki. Sympatico™ contains about a 1:0.67 ratio of Bacillus thuringiensis subsp. kurstaki fermentation solids, spores and toxins to Bacillus thuringiensis subsp. aizawai fermentation solids, spores and toxins. Coragen® was used as the source of chlorantraniliprole. The present invention is not limited to the commercial products used in the examples. In each example below, the studies were conducted as follows.
(§2) For these tests, standardized laboratory leaf dip methods were used to inoculate plant material with treatment(s). Dry, treated leaves were placed into Petri dishes (100×25 mm) containing filter paper wetted with 500 μl of distilled H2O (“dH2O”). Each dish was then infested with between 5 and 10 larvae, dependent on species. Efficacy ratings were taken at specified intervals. Synergy ratings were calculated for each test. […]

A further experiment relates to cabbage looper larvae. The experiment is described as follows: Leaf dip test, cabbage looper larvae. The format is in vivo. Particulars: Trichoplusia ni, foliar, Bta/Btk 1.69 ppm, chlorantraniliprole 0.0009 ppm, read-out: % Efficacy.
Source text: as §1, §2

A further experiment relates to beet armyworm larvae. The experiment is described as follows: Leaf dip test, beet armyworm larvae. The format is in vivo. Particulars: Spodoptera exigua, foliar, Bta/Btk 1.69 ppm, chlorantraniliprole 0.0009 ppm, read-out: % Efficacy.
Source text: as §1, §2

In another experiment the test system is corn earworm larvae. The experiment is described as follows: Leaf dip test, corn earworm larvae. The format is in vivo. The following applies: Helicoverpa zea, foliar, Bta/Btk 5.4 ppm, chlorantraniliprole 0.0009 ppm, read-out: % Efficacy.
Source text: as §1, §2

Another experiment concerns sugarcane borer larvae. The experiment is described as follows: Leaf dip test, sugarcane borer larvae. The format is in vivo. Particulars: Diatraea saccharalis, foliar, Bta/Btk 1.69 ppm, chlorantraniliprole 0.0009 ppm, read-out: % Efficacy.
Source text: as §1, §2

In experiment [1] the test system is southwestern corn borer larvae. Briefly: Leaf dip test, southwestern corn borer larvae. The format is in vivo, Diatraea grandiosella. Particulars: foliar, Bta/Btk 1.69 ppm, chlorantraniliprole 0.0009 ppm, read-out: % Efficacy.
Source text: as §1, §2

The test system of the next experiment is diamondback moth larvae. The experiment is described as follows: Leaf dip test, diamondback moth larvae. In kind it is in vivo. Particulars: Plutella xylostella, foliar, Bta/Btk 1.69 ppm, chlorantraniliprole 0.0009 ppm, read-out: % Efficacy.
Source text: as §1, §2

With `CNC(=O)c1cc(Cl)cc(C)c1NC(=O)c1cc(Br)nn1-c1ncccc1Cl` [Chlorantraniliprole], the Emax at 0.045 ppm with soybean looper larvae (24 h after treatment) came out at 3%; in the experiment with soybean looper larvae (48 h after treatment), 14%. In addition, the Emax at 0.0009 ppm in the experiment on cabbage looper larvae (24 h after treatment) was determined as 3%; with cabbage looper larvae (48 h after treatment), 10%; with beet armyworm larvae (24 h after treatment), 3%; in the experiment on beet armyworm larvae (48 h after treatment), 7%; in the experiment on corn earworm larvae (24 h after treatment), 3%; with corn earworm larvae (48 h after treatment) it was 3%. The Emax at 0.0009 ppm in the experiment with sugarcane borer larvae (24 h after treatment) was determined as 3%; in the experiment with sugarcane borer larvae (48 h after treatment), 13%; in experiment [1] (24 h after treatment), 3%; in experiment [1] (48 h after treatment), 3%; in the experiment with diamondback moth larvae (24 h after treatment), 7%; in the experiment with diamondback moth larvae (48 h after treatment), 13%.

The record behind these values is patent US9723844B2, “Synergistic Bacillus thuringiensis subsp. aizawai, Bacillus thuringiensis subsp. kurstaki and chlorantraniliprole mixtures for diamondback moth, beet armyworm, sugarcane borer, soybean looper, corn earworm, cabbage looper, and southwestern corn borer control” (Valent BioSciences Corporation, priority 2015, dated 2017).
